Our source for the bioavailability, CL and Papp values is ChEMBL document CHEMBL4673394, “Discovery of a Series of Pyrazinone RORγ Antagonists and Identification of the Clinical Candidate BI 730357” (ACS Med Chem Lett, 2021).

A short description of series [1]: Oral bioavailability in Wistar Han rat at 3 mg/kg measured at 15 to 1440 mins. The settings on record: in vivo, time 15-1440 min. Type of series: ADME, organism-based.
The nature of series [2]: Clearance in Wistar Han rat at 1 mg/kg, iv measured at 5 to 1440 mins relative to hepatic blood flow. Type of series: ADME, organism-based. Particulars: in vivo, time 5-1440 min.
Series [3] in a line: Permeability in human Caco2 cells. Type of series: ADME, cell-based. Particulars: Caco-2, read-out: permeability.

Consider `CCS(=O)(=O)c1ccc(CNc2nc3cnc(-c4c(C)ncnc4C4CC4)nc3n(C(C)C)c2=O)nc1`, for which, in series [1], the bioavailability – broadly, dose-corrected exposure relative to a reference, in per cent – was 71%. Also, the CL in series [2] worked out at 16%.

As for `CCS(=O)(=O)c1ccc(CNc2nc3cnc(-c4c(OC)ncnc4C4CC4)nc3n([C@@H](C)C3CC3)c2=O)nc1`, in series [2], the CL came to 56%.

Compound `Cc1ncnc(C2CC2)c1-c1ncc2nc(NCc3ccc(S(C)(=O)=O)cn3)c(=O)n([C@@H](C)C3CC3)c2n1` gave a bioavailability in series [1] of 70%. Besides, in series [3], the Papp amounted to 110 ×10⁻⁶ cm/s. For the same compound, in series [2], the CL was 16%.

`CNS(=O)(=O)c1ccc(CNc2nc3cnc(-c4c(C)ncnc4C4CC4)nc3n([C@@H](C)C3CC3)c2=O)nc1` showed a CL in series [2] of 57%.

In series [2], `CCS(=O)(=O)c1cnc(CNc2nc3cnc(-c4c(C)ncnc4C4CC4)nc3n([C@@H](C)C3CC3)c2=O)nc1` showed a CL of 29%.

The compound `CC[C@@H](C)n1c(=O)c(NCc2ccc(S(=O)(=O)CC)cn2)nc2cnc(-c3c(OC)ncnc3C3CC3)nc21` gave a bioavailability in series [1] of 20%. The compound also registered a CL in series [2] of 42%.

Turning to `CCS(=O)(=O)c1ccc(CNc2nc3cnc(-c4c(C)ncnc4C4CC4)nc3n([C@@H](C)C3CC3)c2=O)nc1`, the CL in series [2] turned out to be 23%.

In turn, `CCS(=O)(=O)c1ccc(CNc2nc3cnc(-c4c(OC)ncnc4C4CC4)nc3n(C(C)C)c2=O)nc1` showed a bioavailability in series [1] of 70%. Also, the CL in series [2] was 32%.

The compound `CCS(=O)(=O)c1ccc(CNC(=O)N2CC(C)(C)c3nc(-c4c(OC)ncnc4C4CC4)ccc32)cc1` displayed a bioavailability in series [1] of 90%. The compound further came in with a CL in series [2] of 34%.

In series [2], `CCS(=O)(=O)c1ccc(CNc2nc3cnc(-c4c(OC)ncnc4C4CC4)nc3n([C@H](C)C3CC3)c2=O)nc1` registered a CL of 44%.

As for `CCS(=O)(=O)c1ccc(CNc2nc3cnc(-c4c(C)ncnc4C4CC4)nc3n([C@@H](C)C3CC3)c2=O)cn1`, the bioavailability in series [1] is 61%. The compound further came in with a CL in series [2] of 19%.

The compound `CCS(=O)(=O)c1ccc(CNc2nc3cnc(-c4c(OC)ncnc4C4CC4)nc3n([C@@H](C)C(F)(F)F)c2=O)nc1` returned a CL in series [2] of 10%.
